Source: patent US20190336484A1, “IL-8 INHIBITORS FOR USE IN THE TREATMENT OF SOME UROLOGICAL DISORDERS” (DOMPÉ FARMACEUTICI S.P.A., priority 2017, published 2019)

Key:
CXCR1/CXCR2 = conditions: Bertini R. et al, Br J Pharmacol 2012; cited from earlier work
[1] = system: testosterone-induced prostate hypertrophy (TBPH); assay: Testosterone-induced prostate hypertrophy (TBPH), cystometry / urodynamic parameters; type: in vivo, Sprague-Dawley male rats; conditions: 20 mg/kg oral twice daily, 5 days a week, 4 weeks
Excerpt: The study was undertaken to test the effects of chronic oral administration of Compound 1 in rats with dysfunctional bladders in an experimental model of TBPH involving an estrogen-associated inflammation (Tatemichi et al, J Urol 2006, 176:1236-1241).
(§1) A total 26 Sprague-Dawley male rats (250-270 g) were used for the study, according to the regulations of the Animal Ethics Committee (IACUC n.631). The rats were maintained under standard laboratory conditions at 12:12 light/dark cycle with free access to food pellets and tap water.
BPH was induced treating animals once a week for 4 weeks with intramuscular hormones corresponding to testosterone enanthate (Geymonat, 12.5 mg)+17β-estradiol-velerate (SIGMA, 0.125 mg) in sesame oil. […]
The conscious rats were placed in metabolic cages without restraint and the bladder catheters were connected via a T-tube to a pressure transducer (P23 DC; Statham Instruments Inc., Oxnard, Calif., USA) and a microinjection pump (CMA 100; Carnegie Medicine Aft Solna, Sweden). Micturition volumes were recorded with a fluid collector connected to a force displacement transducer (FT 03 D, Grass Instrument Co., Quincy, Mass., USA). […] Pressures and micturition volumes were recorded continuously with Acq Knowledge 3.8.1 software and a MP100 data acquisition system (Biopac Syst. Inc. Santa Barbara, Calif.) connected to a Grass polygraph (Model 7E, Grass Instrument Co).

RWPE-1 cells = assay: in vitro inflammatory model of prostatitis: ROS/RNS production (DCFH-DA assay) in RWPE-1 cells exposed to conditioned medium from activated U-937; type: cell-based, human; conditions: then CM from activated U-937, measured after 3 hours
Excerpt: Characterization of Compound 1 on an in vitro inflammatory model of prostatitis.
In the aim of characterizing the Compound 1 on an in vitro inflammatory prostatitis model, human prostatic normal cells RWPE-1 (ATCC, lot number 61840713) are put in communication with activated macrophages; thus it induces an inflammatory micro-environment that enhances the production of reactive oxygen and nitrogen species (Debelec-Butuner et al, Mol. Carcinogen. 2014, 53:85-97).
Human U-937 monocytes (ATCC, lot number 61795631) seeded at 50.000 cells/ml were differentiated with phorbol acetate ([…]) for 16 h. In order to stimulate cytokines production, lipopolysaccharide (LPS) was added (10 ng/ml for 24 h) and the conditioned medium (CM) collected.
After 24 h in culture, RWPE-1 cells were treated with Compound 1 (0.1, 1 and 10 μM) and then exposed to CM from activated U-937. After 3 hours, reactive oxygen species (ROS) and Reactive Nitrogen species (RNS) were quantitatively measured by means of 2′,7′-dichlorodihydrofluorescein diacetate (DCFH-DA) assay. […] DCF is a highly fluorescent compound which can be detected by fluorescence spectroscopy with maximum excitation and emission spectra of 495 nm and 529 nm respectively (Games et al, J. Biochem. Biophys. Methods 2005, 65:45-80).

pharmacokinetic profile = conditions: in vivo
Excerpt: In fact, as it will be illustrated in the Experimental section, Compd.

[2] = system: experimental autoimmune chronic prostatitis (EACP); assay: Experimental autoimmune chronic prostatitis (EACP), mechanical allodynia by Von Frey test; type: in vivo, Lewis male rats; conditions: 20 mg/kg oral twice daily
Excerpt: The experimental autoimmune chronic prostatitis (EACP) can be easily generated in rats by specific immunization with syngeneic rat prostate homogenate. As a consequence of the strong inflammatory reaction, pelvic pain is generated, as already described (Zhang et al, Scand J Immunol 2011, 73:546-553; Zhang et al, Prostate 2012, 72:90-99; Wang et al, Int Urol Nephrol 2015, 47:307-316; Rudick et al, Am J Physiol Regul Integr Comp Physiol 2008, 294:R1268-1275).
as §1, with “of 36 Lewis” for “26 Sprague-Dawley”, “g) from Charles River Italy” for “g)”
Each animal was initially immunized with 2 mg of syngeneic prostate protein, diluted in saline, emulsified with complete Freund adjuvant containing 2 mg/ml of H37a mycobacterium (BD). Emulsion was produced by vortexing the mix for 15 min or till obtaining appropriate viscosity. A total volume of 0.2 mL in two sites was injected into each anesthetized rat at the dorsal tail base. A booster immunization was then repeated 13 days after the first injection. […]
Effect of pelvic pain was evaluated 16 and 26 days after immunization by testing mechanical allodynia with Von Frey test. […]

| absorption (plasma) (pharmacokinetic profile) | SMILES | CXCR1/CXCR2 inhibitor character (CXCR1/CXCR2) | post void residual volume (PVR) ([1]; FIG. 4) | area under pressure/time curve (AUC, detrusor over activity) ([1]; FIG. 5) | total ROS and RNS production induced by conditioned medium (CM) (RWPE-1 cells; Compound 1 at 1 μM) | total ROS and RNS production induced by conditioned medium (CM) (RWPE-1 cells; Compound 1 at 10 μM) | mechanical hypersensitivity and allodynia (abdomen/pelvic withdrawal threshold, Von Frey) ([2]; day 16 and 26 after immunization, compared to vehicle) | applied force eliciting response in Von Frey test, fold higher ([2]; vehicle group stimulated by 19 g, FIG. 3) |
| --- | --- | --- | --- | --- | --- | --- | --- | --- |
| – | C[C@@H](C(=O)NS(C)(=O)=O)c1ccc(OS(=O)(=O)C(F)(F)F)cc1.[Na] [Compd.2, sodium salt of R(−)-2-[(4′-trifluoromethanesulfonyloxy)phenyl]-N-methanesulfonyl propionamide] | potent and selective dual CXCR1/CXCR2 non-competitive allosteric inhibitor | – | – | – | – | – | – |
| rapid absorption | C[C@H](C(=O)[O-])c1ccc(Nc2nc(C(F)(F)F)cs2)cc1.[Na+] [Compound 1, sodium salt of (2S)-2-(4-{[4-(trifluoromethyl)-1,3-thiazol-2-yl]amino}phenyl) propanoic acid] | – | numerical trend in reducing | numerical trend in reducing | completely reverted the CM effect | more modest effect in comparison to the concentration 1 μM | partly decreased the mechanical hypersensitivity and allodynia reaching the statistical significance at day 26 | 2,8 fold |
